Measured values: article PMC6108078 (Chemical research in toxicology, 2018)
Values joined by “and” are separate entries in the source; they are usually repeats but may differ in a detail not shown here. Equal values may be shown once. Read-outs that look alike come from different tables or passages of the source. Each block holds one compound with its values, some of them ahead of it.

Columns and labels:
[1] = for decrease of M5 formation compared to vehicle control: furafylline 25 μM, quinidine 2 μM
HepG2 cells = details: treatment of HepG2 cells; cited from earlier work
[2] = GSH trapping in pooled human liver microsomes; type: in vitro ADME; details: microsomal incubations in the absence of NADPH supplementation
[3] = patients taking sunitinib; cited from earlier work
P450 3A4 = P450 3A4 (Homo sapiens, UniProt P08684); assay: Kinetics of sunitinib metabolite formation by recombinant P450 3A4; type: in vitro ADME; details: sunitinib N-deethylation (M1 formation), recombinant enzymes
Sequence of P450 3A4 (P08684 whole entry): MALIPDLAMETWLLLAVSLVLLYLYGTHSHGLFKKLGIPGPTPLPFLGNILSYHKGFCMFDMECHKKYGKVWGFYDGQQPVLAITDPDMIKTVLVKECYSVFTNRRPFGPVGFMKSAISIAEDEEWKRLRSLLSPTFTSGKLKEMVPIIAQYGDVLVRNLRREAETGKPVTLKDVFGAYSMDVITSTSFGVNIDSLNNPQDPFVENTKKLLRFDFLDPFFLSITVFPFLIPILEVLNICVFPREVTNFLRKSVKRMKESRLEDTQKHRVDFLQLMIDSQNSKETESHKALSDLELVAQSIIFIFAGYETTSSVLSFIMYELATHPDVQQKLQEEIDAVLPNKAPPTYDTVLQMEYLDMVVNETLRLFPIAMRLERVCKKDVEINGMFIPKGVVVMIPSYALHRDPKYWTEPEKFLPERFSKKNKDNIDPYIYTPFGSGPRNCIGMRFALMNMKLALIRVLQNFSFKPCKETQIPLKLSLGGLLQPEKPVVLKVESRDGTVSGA

[4] = mass balance studies in humans; cited from earlier work
[5] = cited from earlier work
[6] = monkeys administered [14C]sunitinib L-malate; ref sunitinib NDA document, 9; cited from earlier work
[7] = type: in vitro ADME, human
[8] = sunitinib 10 μM, 0.1 mg/mL, GSH 5 mM, 10 min, ketoconazole 1 μM, CYP3cide 2 μM, mean ± SD, n = 3
[9] = in the absence of dGSH, sunitinib 25 μM, 1 mg/mL, 30 min
[10] = in the presence of dGSH (1 mM), sunitinib 25 μM, 1 mg/mL, 30 min

effect on formation of M3 and M5 ([1]; initial experiments, coincubation with sunitinib, data not shown): significantly increased
increase of M3 levels compared to control ([1]; sunitinib 10 μM, 0.1 mg/mL, GSH 5 mM, 10 min, α-naphthoflavone 1 μM, mean ± SD, n = 3): 41 ± 17%
SMILES: O=c1cc(-c2ccccc2)oc2c1ccc1ccccc12 [α-naphthoflavone]

decrease of M5 formation compared to vehicle control [1, 8]: 62% and 62 ± 17%
SMILES: Cc1nc2c([nH]1)c(=O)n(C)c(=O)n2Cc1ccco1 [furafylline]

decrease of M5 formation compared to vehicle control [1, 8]: 52 ± 4%
decrease of M1 levels compared to vehicle control [1, 8]: 88% and 88 ± 5%
decrease of M3 levels compared to control [1, 8]: 40 ± 9%
SMILES: CC(=O)N1CCN(c2ccc(OCC3COC(Cn4ccnc4)(c4ccc(Cl)cc4Cl)O3)cc2)CC1 (centres unmarked) [ketoconazole]

SMILES: CCN(CC)CCNC(=O)c1c(C)[nH]c(/C=C2\C(=O)Nc3ccc(F)cc32)c1C [sunitinib]
hepatocellular toxicity effects (HepG2 cells): increase the production of reactive oxygen species, disrupt the mitochondrial membrane potential, deplete glutathione content, and induce apoptosis in a concentration-dependent manner
direct GSH conjugation of parent drug (Sun–SG) [2]: evidence for the direct conjugation of GSH to the parent drug
occurrence of clinically significant liver injury [3]: 3–4 % of patients
occurrence of liver failure [3]: 0.3 % of patients

SMILES: CCNCCNC(=O)c1c(C)[nH]c(/C=C2\C(=O)Nc3ccc(F)cc32)c1C [M1, N-desethylsunitinib]
fold higher efficiency (kcat/Km) of P450 3A4 compared to P450 1A2 (P450 3A4): ~5 fold
share of the total dose [4]: 32–52%
activity relative to parent drug [5]: equal to that of the parent drug
share of the total radioactivity recovered in feces [6]: 20–40%
M1 share of the metabolic turnover of sunitinib [7, 9]: 70%
ratio of M1 to sunitinib UV peak area [7, 9]: 0.70
M1 share of the metabolic turnover of sunitinib [7, 10]: 41%
ratio of M1 to sunitinib (UV peak area at 420–440 nm) [7, 10]: 0.41
M1 share of sunitinib metabolic turnover in human liver microsomes ([7]; summary statement in discussion): ≥ 41%
fold higher M1 levels in the absence of dGSH compared to in the presence of dGSH ([7]; sunitinib 25 μM, 1 mg/mL, 30 min, UV absorbance peak area at 430 nm, n = 2-3): 2.5 fold
